Results on one compound are retold here after paper PMC11536634, “Discovering a novel dual specificity tyrosine-phosphorylation-regulated kinase 1A (DYRK1A) inhibitor and its impact on tau phosphorylation and amyloid-β formation” (Journal of Enzyme Inhibition and Medicinal Chemistry, 2024).

What all share (format): biochemical
The target in test [1] is fibroblast growth factor receptor 1 (FGFR1) (Homo sapiens, UniProt P11362). Put plainly: kinase panel ([…] human kinases), […] inhibition at […].
For test [2], the target named is cyclin-dependent kinase 2 (CDK2) (Homo sapiens, UniProt P24941). Briefly: kinase panel ([…] human kinases), […] inhibition at […].
The next test addresses DYRK1A (Homo sapiens, UniProt Q13627). Put plainly: cell-free Z'-LYTE FRET kinase assay, dose-response; ATP competition.
The target of the next test is CDC-like kinase 2 (CLK2) (Homo sapiens, UniProt P49760). Put plainly: kinase panel ([…] human kinases), […] inhibition at […].
CDC-like kinase 2 (CLK2), sequence (P49760 whole entry): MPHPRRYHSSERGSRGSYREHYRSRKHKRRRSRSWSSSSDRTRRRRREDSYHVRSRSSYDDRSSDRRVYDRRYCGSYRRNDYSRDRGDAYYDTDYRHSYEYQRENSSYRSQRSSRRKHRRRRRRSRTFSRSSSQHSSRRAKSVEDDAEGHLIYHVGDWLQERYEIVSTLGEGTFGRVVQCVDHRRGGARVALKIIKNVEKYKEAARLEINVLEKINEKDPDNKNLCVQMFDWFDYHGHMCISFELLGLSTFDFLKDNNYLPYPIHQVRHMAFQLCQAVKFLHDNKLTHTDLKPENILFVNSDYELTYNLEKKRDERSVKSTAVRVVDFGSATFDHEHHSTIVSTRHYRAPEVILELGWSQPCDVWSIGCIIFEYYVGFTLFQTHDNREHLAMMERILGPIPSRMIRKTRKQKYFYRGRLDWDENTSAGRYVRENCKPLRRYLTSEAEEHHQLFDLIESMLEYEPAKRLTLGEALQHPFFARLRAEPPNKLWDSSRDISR

fibroblast growth factor receptor 1 (FGFR1), sequence (P11362 22-822): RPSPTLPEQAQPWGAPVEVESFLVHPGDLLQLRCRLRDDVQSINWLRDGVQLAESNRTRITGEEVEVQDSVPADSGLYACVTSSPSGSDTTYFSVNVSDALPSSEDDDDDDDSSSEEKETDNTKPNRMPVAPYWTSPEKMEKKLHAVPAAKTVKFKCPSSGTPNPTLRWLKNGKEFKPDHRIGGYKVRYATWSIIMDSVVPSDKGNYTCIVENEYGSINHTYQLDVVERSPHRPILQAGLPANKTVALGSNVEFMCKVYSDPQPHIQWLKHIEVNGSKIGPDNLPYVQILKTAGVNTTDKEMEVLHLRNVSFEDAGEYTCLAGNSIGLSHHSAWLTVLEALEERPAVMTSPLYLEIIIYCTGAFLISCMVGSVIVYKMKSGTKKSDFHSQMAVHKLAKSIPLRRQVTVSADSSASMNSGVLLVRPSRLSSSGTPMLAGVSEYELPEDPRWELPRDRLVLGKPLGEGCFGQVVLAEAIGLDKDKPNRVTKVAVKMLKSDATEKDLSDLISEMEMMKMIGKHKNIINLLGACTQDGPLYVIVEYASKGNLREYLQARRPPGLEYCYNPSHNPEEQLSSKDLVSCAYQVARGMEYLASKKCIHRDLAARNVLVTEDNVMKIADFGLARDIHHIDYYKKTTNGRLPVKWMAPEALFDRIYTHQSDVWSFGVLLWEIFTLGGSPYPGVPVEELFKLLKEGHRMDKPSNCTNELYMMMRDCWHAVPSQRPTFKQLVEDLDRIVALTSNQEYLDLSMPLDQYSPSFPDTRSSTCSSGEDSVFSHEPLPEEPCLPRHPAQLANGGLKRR

In the case of `O=C1CC(c2c[nH]c3nccnc23)NN1` (stereo not shown) [compound 217908, NSC217908], the “% inhibition at 3 μM” value was 69 in test [1], 54 in test [2] and 89 at CDC-like kinase 2 (CLK2). Further, the half-inhibitory concentration (IC50) – broadly, the concentration needed to halve the response being measured – at DYRK1A was 949 nM.
